Test results as given in patent publication US6063789A, “Aminoisoquinolines and aminotheinopyridine derivatives and their use as anti-inflammatory agents” (priority 1996, dated 2000).
Where a name gives a salt, the structure may show the parent alone.

Columns and labels:
[1] = cited from J Med. Chem., vol 20, No 3, March 1977, pp 449 to 452; cited from earlier work
[2] = target: T1, inducible isoform of the enzyme nitric oxide synthase (NOS) (Mus musculus, UniProt P29477); experiment: nitric oxide synthetase activity screen (conversion of 3H-L-arginine to 3H-L-citrulline by lysate of induced J774A-1 macrophages); type: biochemical; details: lysate of LPS/IFNg-induced murine macrophage J774A-1 cells; 1 hour at room temperature; read-out: IC50 (the concentration of drug substance which gives 50% enzyme inhibition in the assay)
T1 construct: Nitric oxide synthase is produced by cells in response to interferon-g (IFNg) and lipopolysaccharide (LPS); endogenous in cells; host or cells: J774A-1 murine macrophage cell line, induced with LPS and IFN-gamma; crude cell lysate
Experimental: The activity of compounds according to the invention was tested in the following screen.
The activity of compounds of formula I, or a pharmaceutically acceptable salt, enantiomer or tautomer thereof, may be screened for nitric oxide synthetase activity by a procedure based on that of Forstennann et al. (1992) Eur. J. Pharm. […] Nitric oxide synthetase converts ^3 H-L-arginine to ^3 H-L-citrulline which can be separated by cation exchange chromatography and quantified by liquid scintillation counting.
Enzyme is prepared, after induction, from the cultured murine macrophage cell line J774A-1 (obtained from the laboratories of the Imperial Cancer Research Fund). J774A-1 cells are cultured in Dulbeccos Modified Eagles Medium (DMEM) supplemented with 10% foetal bovine serum, 4 mM L-glutamine and antibiotics (100 units/ml penicillin G, 100 mg/ml streptomycin & 0.25 mg/ml amphotericin B). Cells are routinely grown in 225 cm^2 flasks containing 35 ml medium kept at 37° C. and in a humidified atmosphere containing 5% CO2. Nitric oxide synthase is produced by cells in response to interferon-g (IFNg) and lipopolysaccharide (LPS). The medium from confluent culture flasks is removed and replaced with 25 ml (per flask) of fresh medium containing 1 mg/ml LPS and 10 units/ml IFNg. After a period of 17-20 hours in culture, harvesting of cells is accomplished by scraping the cell sheet from the flask surface into the culture medium. Cells are collected by centrifugation (1000 g for 10 minutes) and lysate prepared by adding to the cell pellet a solution containing 50 mM Tris-HCl (pH 7.5 at 20° C.), 10% (v/v) glycerol, 0.1% (v/v) Triton-X-100, 0.1 mM dithiothreitol and a cocktail of protease inhibitors comprising leupeptin (2 mg/ml), soya bean trypsin inhibitor (10 mg/ml), aprotinin (5 mg/ml) & phenylmethylsulphonyl fluoride (50 mg/ml).
For the assay, 25 μl substrate cocktail (50 mM Tris-HCl (pH 7.5 at 20° C.), 400 μM NADPH, 20 μM flavin adenine dinucleotide, 20 μM flavin mononucleotide, 4 μM tetrahydrobiopterin, 12 μM L-arginine and 0.025 mCi L-[^3 H] arginine) is added to wells of a 96 well filter plate (0.45 μM pore size) containing 25 μl of a solution of test compound in 50 mM Tris-HCl. The reaction is started by adding 50 μl of cell lysate (prepared as above) and after incubation for 1 hour at room temperature is terminated by addition of 50 μl of an aqueous solution of 3 mM nitroarginine and 21 mM EDTA.
Labelled L-citrulline is separated from labelled L-arginine using Dowex AG-SOW. […] After allowing the samples to dry the L-citrulline is quantified by scintillation counting.
Compounds are tested at a range of concentrations and from the inhibitions obtained IC50 values are calculated.

| SMILES | antihypertensive activity [1] | IC50 [2] [µM] |
| --- | --- | --- |
| NC1=NCCc2ccccc21 [1-amino-3,4-dihydroisoquinoline] | has antihypertensive activity | – |
| NC1=NC(c2ccccc2)Cc2ccccc21 (centres unmarked) [Example 2, 1-Amino-3-phenyl-3,4-dihydroisoquinoline hydrochloride] | – | < 25 |
| C#CC1Cc2ccccc2C(N)=N1 (centres unmarked) [Example 41, 1-Amino-3-ethynyl-3,4-dihydroisoquinoline hydrochloride] | – | < 25 |
| NC1=NC(c2nccs2)Cc2ccccc21 (centres unmarked) [Example 46, 1-Amino-3-(2-thiazolyl)-3,4-dihydroisoquinoline hydrochloride] | – | < 25 |
| CC1Cc2ccccc2C(N)=N1 (centres unmarked) [Example 49, 1-Amino-3-methyl-3,4-dihydroisoquinoline hydroiodide] | – | < 25 |
